Measurements as given in patent US20250090540A1, “PI3K-ALPHA INHIBITORS AND METHODS OF USE THEREOF” (Relay Therapeutics, Inc., priority 2021, published 2025).

Each molecule was assayed against H1047R PIK3CA enzyme (Homo sapiens, UniProt P42336, H1047R) (assay: ADP-Glo Biochemical PIK3CA Kinase Assay). Conditions: not given.
Chain of H1047R PIK3CA enzyme (P42336 whole entry H1047R): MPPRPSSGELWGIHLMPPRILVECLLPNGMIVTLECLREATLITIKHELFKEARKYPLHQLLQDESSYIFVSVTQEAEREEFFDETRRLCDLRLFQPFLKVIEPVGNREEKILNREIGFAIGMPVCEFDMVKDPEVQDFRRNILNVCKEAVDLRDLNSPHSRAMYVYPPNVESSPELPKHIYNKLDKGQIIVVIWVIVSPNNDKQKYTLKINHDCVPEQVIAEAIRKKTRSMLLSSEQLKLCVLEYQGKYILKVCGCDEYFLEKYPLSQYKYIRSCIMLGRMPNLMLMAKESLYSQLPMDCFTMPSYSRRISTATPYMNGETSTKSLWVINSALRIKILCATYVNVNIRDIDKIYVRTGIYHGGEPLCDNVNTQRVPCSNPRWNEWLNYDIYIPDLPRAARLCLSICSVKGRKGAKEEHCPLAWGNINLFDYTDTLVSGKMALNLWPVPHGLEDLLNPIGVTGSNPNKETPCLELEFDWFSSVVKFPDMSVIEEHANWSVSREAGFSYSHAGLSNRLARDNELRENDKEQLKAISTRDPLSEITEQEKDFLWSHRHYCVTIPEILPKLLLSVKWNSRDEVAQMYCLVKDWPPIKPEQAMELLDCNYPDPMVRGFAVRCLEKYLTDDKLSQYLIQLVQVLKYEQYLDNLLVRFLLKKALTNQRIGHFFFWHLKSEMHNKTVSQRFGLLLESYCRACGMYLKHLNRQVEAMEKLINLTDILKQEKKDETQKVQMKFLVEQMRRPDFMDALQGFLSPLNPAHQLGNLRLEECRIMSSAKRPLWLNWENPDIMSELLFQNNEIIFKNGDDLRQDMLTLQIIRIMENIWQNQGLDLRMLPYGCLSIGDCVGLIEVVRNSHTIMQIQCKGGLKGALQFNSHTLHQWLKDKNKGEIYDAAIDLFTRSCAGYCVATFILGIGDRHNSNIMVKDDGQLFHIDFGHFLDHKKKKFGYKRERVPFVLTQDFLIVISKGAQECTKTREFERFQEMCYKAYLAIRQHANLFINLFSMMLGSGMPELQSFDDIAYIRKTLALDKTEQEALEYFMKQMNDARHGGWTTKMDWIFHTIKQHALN
Chain of H1047R PIK3CA enzyme (P27986 whole entry partner): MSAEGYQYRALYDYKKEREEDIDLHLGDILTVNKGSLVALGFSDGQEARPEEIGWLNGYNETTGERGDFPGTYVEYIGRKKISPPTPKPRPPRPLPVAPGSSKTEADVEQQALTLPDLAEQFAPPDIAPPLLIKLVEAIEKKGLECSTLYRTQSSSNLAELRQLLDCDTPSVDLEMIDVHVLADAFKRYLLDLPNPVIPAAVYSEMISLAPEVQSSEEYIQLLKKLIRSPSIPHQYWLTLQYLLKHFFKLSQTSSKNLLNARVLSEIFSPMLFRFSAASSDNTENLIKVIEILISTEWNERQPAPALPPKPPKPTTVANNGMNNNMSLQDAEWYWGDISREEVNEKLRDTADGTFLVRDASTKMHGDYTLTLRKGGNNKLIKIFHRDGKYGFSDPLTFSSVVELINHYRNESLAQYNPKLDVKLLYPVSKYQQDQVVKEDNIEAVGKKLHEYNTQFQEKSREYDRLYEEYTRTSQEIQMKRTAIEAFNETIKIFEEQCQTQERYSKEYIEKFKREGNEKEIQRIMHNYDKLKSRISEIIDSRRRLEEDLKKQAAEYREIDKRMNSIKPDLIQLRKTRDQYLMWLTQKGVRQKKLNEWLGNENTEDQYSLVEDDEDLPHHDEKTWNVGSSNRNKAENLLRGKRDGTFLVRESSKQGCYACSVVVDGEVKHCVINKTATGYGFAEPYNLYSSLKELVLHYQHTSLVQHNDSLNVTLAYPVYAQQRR
Work on `Cc1ccccc1N[C@H]1CCN(C(=O)OC(C)(C)C)C[C@H]1C(=O)Nc1cc(F)cc(C(F)(F)F)c1` (racemic) [I-68] yielded an IC50 of 10 to 100 µM. `Cc1ccccc1Nc1ncc(-c2cnn(C)c2)cc1NC(=O)c1cc(F)cc(Cl)c1` [I-97] showed an IC50 of 0.5 to 1 µM. `COCCn1cc(NC(=O)c2csc3ccccc23)c(N2CCOc3ccccc32)cc1=O` [I-271] was tested, and the IC50 was 1 to 10 µM. In the case of `CC1CCc2ccccc2N1c1ncc(C(=O)NC2CS(=O)(=O)C2)cc1NC(=O)c1csc2ccccc12` (stereo not shown) [I-216], the IC50 is reported as 1 to 10 µM. Work on `CNC(=O)c1cnc(Nc2cccc(F)c2)c([N+](=O)[O-])c1` [I-25] yielded an IC50 of 10 to 100 µM. `CNC(=O)c1cnc(N2CCNCc3ccccc32)c(NC(=O)c2cc(F)cc(C(F)(F)F)c2)c1` [I-281] was tested, and the IC50 was 10 to 100 µM. For `O=C(Nc1cccnc1NC1CCNCC1)c1csc2ccccc12` [I-152], the IC50 was 10 to 100 µM. `Cc1ccc(NC(=O)c2cnc(Nc3ccccc3C)c(NC(=O)c3cc(F)cc(C(F)(F)F)c3)c2)nc1` [I-263] showed an IC50 of 1 to 10 µM. In the case of `CNC(=O)c1cnc(N2C[C@H]3C[C@H]3c3ccccc32)c(NC(=O)c2csc3ccccc23)c1` (racemic) [I-253], the IC50 is reported as 1 to 10 µM. `Cc1ccccc1Nc1ncc(-c2cnn(C)c2)cc1NC(=O)c1cc2ccccc2s1` [I-131] showed an IC50 of 10 to 100 µM. `O=C(NC1CS(=O)(=O)C1)c1cnc(N2C[C@H]3C[C@H]3c3ccccc32)c(NC(=O)c2csc3ccccc23)c1` (racemic) [I-255] showed an IC50 of 0.5 to 1 µM. `CNC(=O)c1cnc(Nc2cccnc2C)c(NC(=O)c2cc(F)cc(C(F)(F)F)c2)c1` [I-173] showed an IC50 of 10 to 100 µM. `CNc1ncc(-c2cnn(C)c2)cc1NC(=O)c1cc(F)cc(C(F)(F)F)c1` [I-71] gave an IC50 of 10 to 100 µM. `CNC(=O)c1cnc(Nc2cccc(F)c2)c(NC(=O)c2cc(F)cc(C(F)(F)F)c2)c1` [I-29] showed an IC50 of 10 to 100 µM. In the case of `CNC(=O)c1cnc(Nc2ccccc2C)c(NC(=O)c2cnc3ccccc3c2)c1` [I-176], the IC50 is reported as 10 to 100 µM. For `CNC(=O)c1cnc(Nc2ccccc2C)c(NC(=O)c2cccc3ccncc23)c1` [I-238], the IC50 was 10 to 100 µM. Molecule `CNC(=O)c1cnc(Nc2ccccc2C)c(NC(=O)C2(c3ccccn3)CC2)c1` [I-333] has an IC50 of 10 to 100 µM. For `CNC(=O)c1cnc(Nc2ccccc2C)c(NC(=O)Cc2cc(F)cc(F)c2)c1` [I-161], the IC50 was 10 to 100 µM. In the case of `CNC(=O)c1cnc(Nc2ccccc2C)c(NC(=O)c2n[nH]c3c(F)cccc23)c1` [I-383], the IC50 is reported as 10 to 100 µM. Work on `Cc1ccccc1Nc1ncc(-c2cnn(C)c2)cc1Nc1ncnn2cccc12` [I-61] yielded an IC50 of 10 to 100 µM. Molecule `CNC(=O)c1cnc(Nc2ccccc2C)c(NC(=O)c2cccc(C(F)(F)F)c2)c1` [I-66] has an IC50 of 1 to 10 µM. `Cc1ccc(Nc2ncc(C(=O)NCc3nccs3)cc2NC(=O)c2csc3ccccc23)cc1` [I-225] showed an IC50 of 1 to 10 µM.

Same assay, conditions: ADP-Glo biochemical PIK3CA kinase assay
Work on `CNC(=O)c1cnc(Nc2ccccc2C)c(NC(=O)c2cc3c(C)cccc3[nH]2)c1` [I-440] yielded an IC50 of 10 to 100 µM. For `CNC(=O)c1cnc(Nc2ccccc2C)c(NC(=O)c2ccc3occ(Cl)c3c2)c1` [I-490], the IC50 was 10 to 100 µM. `CNC(=O)c1cnc(Nc2ccccc2C)c(NC(=O)c2csc3c2CCC(C)(C)C3)c1` [I-403] showed an IC50 of 10 to 100 µM. In the case of `CNC(=O)c1cnc(Nc2cncc(F)c2)c(NC(=O)c2csc3ccccc23)c1` [I-739], the IC50 is reported as 1 to 10 µM. Molecule `CNC(=O)c1cnc(Nc2ccccc2C)c(NC(=O)C2(c3ccc(F)c(F)c3)CC2)c1` [I-481] has an IC50 of 10 to 100 µM. For `COc1cncc(CNC(=O)c2cnc(Nc3ccccc3C)c(NC(=O)c3cc(F)cc(C(F)(F)F)c3)c2)c1` [I-707], the IC50 was 1 to 10 µM. Work on `COC1CN(C(=O)c2cnc(Nc3ccccc3C)c(NC(=O)c3csc4ccccc34)c2)C1` [I-541] yielded an IC50 of 1 to 10 µM. Work on `CNC(=O)c1cnc(Nc2cc(F)ccc2Cl)c(NC(=O)c2csc3ccccc23)c1` [I-775] yielded an IC50 of 1 to 10 µM. Work on `Cc1cccc(-n2nc(C)cc2NC(=O)c2cc(F)cc(C(F)(F)F)c2)c1` [I-787] yielded an IC50 of 10 to 100 µM. `CNC(=O)c1cnc(Nc2ccccc2C)c(NC(=O)c2cnn3cccc(OC)c23)c1` [I-430] gave an IC50 of 10 to 100 µM. For `CNC(=O)c1cnc(Nc2ccccc2C)c(NC(=O)c2ccc(CO)c(F)c2)c1` [I-567], the IC50 was 1 to 10 µM. `CNC(=O)c1cnc(Nc2ccccc2C)c(NC(=O)Cn2ccccc2=O)c1` [I-646] showed an IC50 of 1 to 10 µM.
